Measured values reported in PubChem BioAssay (NCI).
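Protocol summary: plate cells (96-well), add compound at 5 concentrations, incubate 48 h, interpolate endpoints linearly. The concentration for 50% growth inhibition is given as GI50. TGI marks complete inhibition of growth.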

Columns and labels:
Assay in all cases: DTP human tumour cell line panel, 48 h
[1] = system: CCRF-CEM leukemia
[2] = system: DU-145 prostate
[3] = system: K-562 leukemia
[4] = system: MCF7 breast
[5] = system: MDA-MB-231 breast
[6] = system: OVCAR-8 ovarian
[7] = system: SK-MEL-28 melanoma
[8] = system: SK-MEL-5 melanoma
[9] = system: SR leukemia
[10] = system: UACC-257 melanoma

Row | Compound | TGI [1] [µM] | TGI [2] [µM] | TGI [3] [µM] | TGI [4] [µM] | TGI [5] [µM] | TGI [6] [µM] | TGI [7] [µM] | TGI [8] [µM] | TGI [9] [µM] | TGI [10] [µM] | GI50 [1] [µM] | GI50 [2] [µM] | GI50 [3] [µM] | GI50 [4] [µM] | GI50 [5] [µM] | GI50 [6] [µM] | GI50 [7] [µM] | GI50 [8] [µM] | GI50 [9] [µM] | GI50 [10] [µM]
1 | C=CCCC1(CCP(=O)(c2ccccc2)c2ccccc2)OCCO1 | > 100 | > 100 | > 100 | > 100 | > 100 | > 100 | > 100 | > 100 | > 100 | > 100 | – | – | – | – | – | – | – | – | – | –
2 | O=C1COc2c(CCNCCN(C(=O)CCNCCc3ccc(Cl)c(Cl)c3)C3CCCCC3)ccc(O)c2N1 | 27.6 | 32 | 34.1 | 27.8 | 25.6 | 34 | 29.3 | 29.4 | 33.7 | 33 | 11 | 17.7 | 16.2 | 11.9 | 10.5 | 17.2 | 14.8 | 15.6 | 12.2 | 16.9
3 | Nc1ccc(N)c2c1C(=O)c1cccc([N+](=O)[O-])c1C2=O | > 100 | 6.9 | > 100 | 18 | > 100 | 19.7 | > 100 | 3.76 | > 20.6 | – | 7.95 | 0.662 | 5.45 | 0.32 | 27 | 2.67 | 11.5 | 1.43 | 0.529 | 0.784
4 | COc1cc([C@H]2c3cc(O)c(OC)cc3C[C@]3(O)[C@@H]2CO[C@@H]3O)ccc1O | > 100 | > 100 | > 100 | > 100 | > 100 | > 100 | > 100 | > 100 | > 100 | > 100 | – | – | – | – | – | – | – | – | – | –
5 | CS(=O)(=O)Nc1ccc(Nc2c3ccccc3nc3cc(Cl)ccc23)cc1 | 33.7 | 14 | > 48.6 | 13.4 | 19.8 | 15.6 | 19.2 | 2.62 | 16 | 16.7 | 0.317 | 0.646 | 2.11 | 0.389 | 4.56 | 1.76 | 3.62 | 1.13 | 0.177 | 3.33
6 | CC(=O)Nc1ccc(C(=O)COc2cccc(/C=C3\CCc4ccccc4C3=O)c2)cc1 | 6.09 | 53 | 12.7 | 19 | 85.9 | > 100 | 37.8 | 11 | 16.7 | 39 | 2.31 | 19.2 | 2.8 | 2.9 | 18.7 | 23.6 | 20.3 | 2.9 | 0.0802 | 15.7
7 | O=C(c1ccccc1)c1ccc(N2C(=O)C3C4c5ccccc5C(/C=C/C(=O)c5ccccn5)(c5ccccc54)C3C2=O)cc1 (configuration not stated) | > 100 | 8.1 | > 100 | > 100 | 6.4 | > 100 | – | 5.71 | > 100 | 46.6 | 0.976 | 2.78 | 1.77 | 1.77 | 2.34 | 2.56 | – | 2.36 | 1.37 | 2.44
8 | N#Cc1c(N/N=C/c2c(Cl)cccc2Cl)nc(N)nc1N1CCCC1 | 16.1 | > 100 | 6.75 | > 100 | 42.2 | 40.5 | > 100 | 7.11 | 3.03 | – | 3.52 | 5.23 | 2.87 | 5.8 | 3.25 | 3.53 | 16.4 | 0.722 | 0.795 | –
9 | COc1ccc(C[C@H](N)C(=O)N[C@@H]2[C@@H](CO)OC(n3cnc4c(N(C)C)ncnc43)[C@@H]2O)cc1 (some centres not stated) | – | 2.53 | 1.46 | 0.621 | 1.22 | 1.13 | 1.13 | 0.914 | 1.32 | 1.08 | – | 0.458 | 0.293 | 0.152 | 0.466 | 0.276 | 0.479 | 0.287 | 0.17 | 0.321
10 | CC(C)(CCc1nc2ccccc2[nH]1)C(=O)O | > 100 | > 100 | > 100 | > 100 | > 100 | > 100 | > 100 | > 100 | > 100 | > 100 | – | – | – | – | – | – | – | – | – | –
11 | Oc1ccc(CCNc2nc3ccccc3c3[nH]c4ccccc4c23)cc1 | – | 3.42 | > 100 | 3.16 | 2.97 | 2.29 | 2.98 | 3.15 | > 100 | 3.46 | – | 1.45 | 1.91 | 1.37 | 1.36 | 1.02 | 1.61 | 1.75 | 1.48 | 1.94
12 | O=C1OC(c2ccccc2)=N/C1=C\c1ccc(N(CCCl)CCCl)cc1 | > 100 | > 100 | > 100 | > 100 | > 100 | > 100 | > 100 | > 100 | > 69.7 | > 100 | – | – | – | – | – | – | – | – | – | –
13 | O=C(COC(=O)[C@H](C[Se][Se]C[C@H](NC(=O)c1ccc(Br)cc1F)C(=O)OCC(=O)c1ccc(F)cc1)NC(=O)c1ccc(Br)cc1F)c1ccc(F)cc1 | – | 1.08 | > 26.4 | 3.06 | 4.03 | 1.61 | 1.63 | 4.27 | > 43.5 | 4.39 | – | 0.385 | 2.83 | 0.984 | 1.65 | 0.408 | 0.631 | 1.23 | 0.92 | 1.82
14 | O=NNc1nc(-c2ccccn2)nc2ccccc12 | 15.4 | > 100 | > 100 | > 100 | > 100 | > 100 | > 100 | > 100 | > 100 | > 100 | – | – | – | – | – | – | – | – | – | –
15 | CCn1c(SC)nnc1-c1cc2c([nH]c3ccccc32)c(-c2cccc(O)c2)n1 | > 100 | 24.9 | > 100 | 25.2 | 15.9 | 24.5 | 21 | 5.97 | > 100 | – | 1.57 | 4.46 | 0.547 | 0.995 | 2.43 | 3.62 | 2.69 | 1.03 | 0.34 | –
